Measured values reported in paper PMC8036603, “Small Molecule Inhibitors of White Spot Syndrome Virus: Promise in Shrimp Seedling Culture” (International Journal of Molecular Sciences, 2021).
Read-outs that look alike come from different tables or passages of the source.

How the values were obtained:
[1] = Solubility / precipitation in aquacultural water; type: physicochemical; conditions: for lowest precipitation concentration / lowest precipitation concentration (bracketed value in LC50 48 h column) / lowest precipitation concentration (bracketed value in LC50 72 h column): test range 0.4~100 mg/L, aquacultural water, LC50 NONE
Procedure: Prior to evaluation of the anti-WSSV activity of coumarins, the safety doses for larvae needed to be determined. […] In contrast, the electron-withdrawing group was more toxic than the electron-donating group, with the LC50 of A5‒A8 being <5 mg/L at 72 h. […] Based on preliminary analysis of the structure-activity relationship (SAR) of similar spatial structures with different substituents of electron-donating and electron-withdrawing groups to coumarins A1, B1, and C1, we considered that […] of compounds; this provides a basis for further research.
All conventional reagents and solvents are purchased directly from commercial companies and no further purification is required. Organic solvents were purchased from Sinopharm chemical reagent Co., Ltd. and purified by distillation and moisture was excluded from the glass apparatus using CaCl2 drying tubes. Throughout this study, silica gel H (200–300 mesh; Qingdao Marine Chemical Factory, Qingdao, China) was used for the column chromatography. For thin layer chromatographic (TLC) plates, Silica gel (GF254) (Qingdao Marine Chemical Factory, Qingdao, China) were used for thin layer chromatographic (TLC) analysis, and all of the spots and bands were detected by UV irradiation (254, 365 nm). The intermediates and products were characterized by electrospray ionization mass spectrometry (TripleTOF5600þ; AB SCIEX Pte. Ltd., Boston, MA, USA), ^1H NMR and ^13C NMR (Bruker AM500 spectrometer; Bruker Corporation, Berne, Switzerland). The derivatives were dissolved in 100% dimethyl sulfoxide (DMSO; Beyotime Biotechnology, Haimen, China), stored at 4 °C prior to antiviral evaluation, and used within 6 months. For solubility, the stock solutions, at a concentration of 50 mg/mL, were sonicated for approximately 10 min to ensure that the derivatives were fully dissolved and mixed.

[2] = test system: white spot syndrome virus (WSSV); assay: Anti-WSSV activity in shrimp larvae, co-incubation, copy number of viral genome by RT-qPCR; type: in vivo, Litopenaeus vannamei; conditions: for EC50: Whispovirus xiabaidian, 72 h, read-out: EC50 (mg/L; 95% CI), median effective concentration, WSSV-infected larvae, copy number of viral genome, 95% CI in brackets; for inhibitory efficiency on WSSV replication: six-point dose-response, viral genome copy number in larvae
[3] = test system: white spot syndrome virus (WSSV); conditions: cited from earlier work
[4] = test system: Shrimp (L. vannamei) larvae; assay: Acute toxicity assay in shrimp larvae; type: in vivo, Litopenaeus vannamei; conditions: after 72 h of exposure
Procedure: Shrimp (L. vannamei) larvae (total length: 0.5 ± 0.04 cm, body weight: 4.2 ± 0.4 mg, mean ± SD) were provided by Zhejiang Mariculture Research Institute Qingjiang Station (Wenzhou, China). The larvae were maintained in a culture pond at 28 °C, fed four times a day with commercial feed pellets, and collected randomly for PCR testing to verify the WSSV-free status prior to the trial.
Acute toxicity of the coumarin derivatives was investigated by exposing larvae to a range of compound concentrations, from 0.1 mg/L to 100 mg/L of coumarin derivatives, where the dose setting was based on the data from preliminary tests in our laboratory. A DMSO-control (2%, v/v, the highest percentage of DMSO in treatments) served as the control. During the experiment, every 20 larvae were moved into six-well plates filled with 6 mL/per well freshly prepared test solutions for a 72-h incubation at 28 °C with a natural photoperiod. […] To avoid deterioration of water quality, dead shrimps were immediately removed at the point of observation. Three replicate experiments were performed.
Compound response curves were represented by a logistic sigmoidal function with a maximal effect level (Amax) and Hill coefficient representing the sigmoidal transition (Origin 8.1; http://www.originlab.com, accessed on 25 March 2021). Statistical analyses were performed using SPSS (version 18.0) statistical software (SPSS Inc., Chicago, IL, USA). The LC50 and EC50 values with 95% CIs were calculated using probit analysis. Virus titers were log10-transformed prior to statistical analyses. Unpaired Student’s t-tests were used to compare coumarin-treated samples and negative-control DMSO samples for determining significance and data are presented as mean values ± SD.

Structure (SMILES)	lowest precipitation concentration [1]	lowest precipitation concentration (bracketed value in LC50 48 h column) [1]	lowest precipitation concentration (bracketed value in LC50 72 h column) [1]	EC50 [2] [mg/L]	inhibitory efficiency on WSSV replication [2]	half-life in aquacultural and sterilized deionized water ([3]; buffer) [h]	solubility in aquacultural water [1]	signs of toxicity at the saturation concentration [4]	solubility in aquacultural water ([1]; tested concentration 16 mg/L, 28 °C)	half-life in aquaculture water [3]
O=C1Nc2c(c(=O)oc3ccccc23)C(c2ccc(O)cc2)N1 (stereo not shown) [A4, 4-(4-hydroxyphenyl)-3,4-dihydro-2H-chromeno[4,3-d]pyrimidine-2,5(1H)-dione]	NONE (50) mg/L	NONE (50) mg/L	NONE (50) mg/L	21.7	exceeded 90%	–	–	–	–	–
N#CC1=C(N)Oc2c(c(=O)oc3ccccc23)C1c1ccc([N+](=O)[O-])cc1 (stereo not shown) [C8]	NONE (16) mg/L	NONE (16) mg/L	NONE (16) mg/L	6.6	exceeded 90%	24 to 48	insoluble	No signs of toxicity were observed	–	–
N#CC1=C(N)Oc2c(c(=O)oc3ccccc23)C1c1ccc(F)cc1 (stereo not shown) [C5]	NONE (16) mg/L	NONE (16) mg/L	NONE (16) mg/L	8.82	exceeded 90%	–	–	No signs of toxicity were observed	insoluble	–
C=CCN1C(=O)S/C(=C\c2ccc(-c3ccccc3)o2)C1=O [LJ025]	–	–	–	–	–	–	–	–	–	less than 2 days
C=CCN1C(=O)/C(=C/c2ccc(-c3ccccc3)o2)SC1=S [LJ001]	–	–	–	–	–	–	–	–	–	less than 2 days
